Measurements: article PMC4559881 (Molecular Neurodegeneration, 2015)

Key:
[1] = Dog PK/PD study: NB-360 exposure in blood and CSF; format: in vivo; details: male, Beagle, blood, po, 0.5 mg/kg p.o.
Method: Blood and CSF were sampled before treatment (at -24 and at -1 h) and at various time points after oral dosing, up to 168 h.
(§2) Brain samples were homogenized with 2 mM KH2PO4 buffer (approx. 1/2, w/v). […] The LLOQ ranged between 0.4 and 2 ng/mL in blood and 1.2 ng/g and 6 ng/g in brain.
Rat studies used male Charles River Sprague-Dawley rats of approx. 300 g body weight. Female transgenic APP51/16 mice (C57BL/6 background strain) were bred in-house. APP51/16 mice express human wild-type APP751 under the control of a Thy-1 expression cassette in brain neurons, and are characterized by mostly cortical, but few vascular amyloid-β deposits. […] Dosing was per os in a dose volume of 10 ml/kg for mice and 5 ml/kg for rats. […] Rodents were deeply anesthetized for CSF sampling from the cisterna magna, accessed through the exposed atlanto-occipital membrane. CSF was harvested into protein lo-bind Eppendorf tubes and frozen on dry ice. Animals were decapitated while anesthetized and blood and brain samples collected. Brains were briefly rinsed in PBS, quickly wet-dissected and samples frozen on a metal plate precooled on dry ice. All samples were stored at -80 ° C until analysis. The dog study was carried out at Charles River Laboratories, Canada. Male dogs were used with n = 4 per group. A cannula with an access port was implanted under anesthesia, to allow serial CSF sampling from the lateral ventricle. […]

Aβ40 = assay: Dog PK/PD study: Aβ40 in CSF and plasma; format: in vivo
Method: The mean (± SD) level of Aβ40 in the CSF prior to dosing was 5991 ± 1199 pg/ml (2 sampling times -24 h and -1 h, n = 7), and the predose plasma Aβ40 level was 261 ± 13 pg/ml (mean ± SD, n = 4, -1 h). […] All dogs responded strongly to the treatment, CSF Aβ40 was reduced by approximately 80 % from 12 to 48 h post dose and slowly returned to baseline (Fig. 3b). […] Furthermore, the available data were used for a calculation of the Aβ40 clearance rate from dog CSF.
(§1) Aβ38, 40 and 42 were determined using the electro-chemiluminescence immuno assay kits from Meso Scale Discovery (Rockville, MD, USA) in either singlet or triplex format. Samples and standards were prepared according to the manufactures protocols. The kit based on the antibody 4G8 was used for rat forebrain and CSF samples, and kits based on 6E10 were used for dog CSF or plasma and APP51/16 brain and CSF samples. Soluble APPα and sAPPβ from APP51/16 mice were determined from the 100000xg supernatant and analyzed with Meso Scale Discovery commercial kits. C-terminal fragments C83 and C99 were determined from Western blots. Forebrain homogenates dephosphorylated with lambda protein phosphatase as described and run on a 10 % Tris-bicine gel with 8 M urea. After transfer to Immobilon P membranes (Bio-Rad Bedford MA USA), bands were probed with APP C8 antibody (recognizing the C-terminus of APP) and detected with goat anti-mouse IgG Fab fragment AlexaFluor680 (Invitrogen). The same gel was used to visualize Aβ1-38, 1-40, and 1-42 using the N-terminal antibody beta1 and goat anti rabbit IgG IRdye 800CW (Odyssey). Full-length human APP was detected using an in house immunoassay based on the MSD ECL system as described.

APP51/16 transgenic mice = assay: Chronic 6-week treatment of APP51/16 mice: APP metabolites, Aβ deposition and neuroinflammation; format: in vivo, mouse; details: for CSF Aβ40 reduction / CSF Aβ42 reduction: 100 μmol/kg/d 6 weeks
Method: Frozen rodent forebrains were homogenized in 9 volumes of ice-cold Tris-buffered saline (pH 7.4) containing Complete protease inhibitor cocktail (Roche Diagnostics, Penzberg, Germany) using a Sonifier 450 (Branson) and stored in aliquots at -80 °C. Triton X-100 soluble Aβ was extracted by mixing 50 μl 2 % Triton X-100 with 50 μl homogenate, incubating for 15 min on ice with vortexing, followed by ultracentrifugation at 100000xg for 15 min. The clear supernatant was diluted to a final forebrain dilution of 1:100 and used for analysis. For the extraction of insoluble amyloid peptides, 50 μl forebrain homogenate was mixed with 117 μl of 100 % formic acid and stored on ice for 15 min with vortexing. Samples were neutralized with 950 μl 1 M Tris base, containing Complete protease inhibitor cocktail (Roche, Basle, Switzerland) and stored overnight at room temperature. The supernatant after 15 min centrifugation at 14000 rpm was used for analysis.
as §1

SweAPP CHO cells = assay: Aβ40 release from Swedish human APP751 CHO cells; details: Cricetulus griseus, 24 h, read-out: IC50 Aβ40 release
[2] = Pharmacokinetics after i.v. and oral application, rat
Method: Pharmacokinetic studies used male Sprague Dawley rats, C57BL6 mice and Beagle dogs, obtained from Charles River (France, rodents) and Marshall (Italy, dogs). […] Blood was collected i.v., by sublingual bleeding or at sacrifice whereas a serial blood sampling allowed obtaining individual PK profiles in these species. Blood samples were taken between 5 min (intravenous) and 15 min (oral) up to 24 h (mice), 48 h (rat) and 408 h (dog).
The absorption and disposition parameters were estimated by a non-compartmental analysis of the mean blood concentration (n = 3 mice) or individual concentration (rats, dogs) versus time profile after oral and intravenous administration.

[3] = Chronic 6-week treatment of APP51/16 mice: NB-360 blood exposure; details: female, APP51/16 (C57BL/6 background), mouse, po, 100 μmol/kg
Method: as §2
Rat studies used male Charles River Sprague-Dawley rats of approx. 300 g body weight. Female transgenic APP51/16 mice (C57BL/6 background strain) were bred in-house. APP51/16 mice express human wild-type APP751 under the control of a Thy-1 expression cassette in brain neurons, and are characterized by mostly cortical, but few vascular amyloid-β deposits. […] Dosing was per os in a dose volume of 10 ml/kg for mice and 5 ml/kg for rats. […] Rodents were deeply anesthetized for CSF sampling from the cisterna magna, accessed through the exposed atlanto-occipital membrane. CSF was harvested into protein lo-bind Eppendorf tubes and frozen on dry ice. Animals were decapitated while anesthetized and blood and brain samples collected. Brains were briefly rinsed in PBS, quickly wet-dissected and samples frozen on a metal plate precooled on dry ice. All samples were stored at -80 ° C until analysis. The dog study was carried out at Charles River Laboratories, Canada. Male dogs were used with n = 4 per group. A cannula with an access port was implanted under anesthesia, to allow serial CSF sampling from the lateral ventricle. Dogs were allowed to recover from the surgery for 2 weeks before the start of the experiment.

[4] = approximate area under the effect curve, 0, 4, 24 h after last dose
[5] = male, Sprague Dawley, blood, iv, 2 umol/kg

Cc1cc(C#N)cnc1C(=O)Nc1ccc(F)c([C@]2(C)CO[C@@](C)(C(F)(F)F)C(N)=N2)c1 [NB-360]
concentration at 168 h [1]: 23 ± 31 nM | time to reach the maximum effect on CSF Aβ (Aβ40; 1.1 μmol/kg (0.5 mg/kg)): around 12 h | time at which CSF Aβ40 reached baseline (Aβ40; 0.5 mg/kg p.o.): about 120 h | Plasma Aβ40 change (Aβ40; 0.5 mg/kg p.o., after 1 h): -42% | Plasma Aβ40 change (Aβ40; 0.5 mg/kg p.o., after 12 h): -70% | CSF Aβ40 reduction (Aβ40; 0.5 mg/kg p.o., from 12 to 48 h post dose): approximately 80% | IC50 (Aβ40; Canis lupus familiaris, read-out: in vivo IC50 of NB-360 in blood for the reduction of Aβ40 in CSF, PK/PD modelling): 59 ± 13 nM | Aβ reduction, approximate area under the effect curve over a 24 h period (Aβ40; from the values at 12 and 36 h): 70-75% | CSF Aβ40 reduction (APP51/16 transgenic mice; 4 h after the dose): > 90% | CSF Aβ42 reduction (APP51/16 transgenic mice; 4 h after the dose): > 90% | CSF Aβ40 reduction (APP51/16 transgenic mice; 24 h): about 60% | CSF Aβ42 reduction (APP51/16 transgenic mice; 24 h): about 60% | C99 reduction in Triton TX-100 forebrain extract (APP51/16 transgenic mice; 4 h after the last dose): about 80% | sAPPβ reduction in Triton TX-100 forebrain extract (APP51/16 transgenic mice; 4 h after the last dose): about 80% | C99 reduction in Triton TX-100 forebrain extract (APP51/16 transgenic mice; 24 h after the last dose): 57% | sAPPβ reduction in Triton TX-100 forebrain extract (APP51/16 transgenic mice; 24 h after the last dose): 70% | Formic-acid extracted Aβ 1-38 in forebrain homogenate (APP51/16 transgenic mice; NB-360 group, Mean ± SEM, N 14): 77.0 ± 24.9 pmol/g forebrain | Formic-acid extracted Aβ 1-40 in forebrain homogenate (APP51/16 transgenic mice; NB-360 group, Mean ± SEM, N 14): 197.3 ± 43.4 pmol/g forebrain | Formic-acid extracted Aβ 1-42 in forebrain homogenate (APP51/16 transgenic mice; NB-360 group, Mean ± SEM, N 14): 106.6 ± 20.9 pmol/g forebrain | Plasma Aβ40 reduction, AUEC24h (APP51/16 transgenic mice; approximate area under the effect curve after last dose): 70% | CSF Aβ40 reduction, AUEC24h (APP51/16 transgenic mice; [4]): approximately 75% | CSF Aβ42 reduction, AUEC24h (APP51/16 transgenic mice; [4]): approximately 75% | CSF sAPPβ reduction, AUEC24h (APP51/16 transgenic mice; [4]): approximately 75% | C83 average increase above vehicle control (APP51/16 transgenic mice; forebrain extract, 4 and 24 h): 50% | sAPPα average increase above vehicle control (APP51/16 transgenic mice; forebrain extract, 4 and 24 h): 50% | Aβ 1-38, NB-360 group, change vs baseline (APP51/16 transgenic mice; formic-acid extract): -33.5 % p = 0.39 | Aβ 1-38, NB-360 group, change vs vehicle (APP51/16 transgenic mice; formic-acid extract): -68.0 % p = 0.015 | Aβ 1-40, NB-360 group, change vs baseline (APP51/16 transgenic mice; formic-acid extract): -16.1 % p = 0.52 | Aβ 1-40, NB-360 group, change vs vehicle (APP51/16 transgenic mice; formic-acid extract): -64.5 % p = 0.003 | Aβ 1-42, NB-360 group, change vs vehicle (APP51/16 transgenic mice; formic-acid extract): -69.3 % p = 0.0006 | number of Aβ deposits (large plaques, small plaques, granules) per 3 cortical sections (APP51/16 transgenic mice; irrespective of the deposit size): indistinguishable from baseline | total area of cortical region of interest stained positively for NT12 (APP51/16 transgenic mice; mean ± SEM, p = 0.093 vs baseline, p <0.0001 vs vehicle): 0.209 ± 0.054% | number of Iba-1 positive cell clusters in the cortex (APP51/16 transgenic mice; relative to vehicle-treated mice): substantially lower | IC50 (SweAPP CHO cells): 33 nM | Vol. of Distribution ([2]; 2 μmol/kg i.v.): 10.2 L/kg | clearance [2, 5]: 52 mL/min/kg | half-life [2, 5]: 2.7 h | bioavailability ([2]; male, Sprague Dawley, blood, po, 6 umol/kg): 92% | concentration at 4 h [3]: 3200 nM | concentration at 24 h [3]: 130 nM
